Data from publication PMC12586598, “A novel long-acting C5a-blocking cyclic peptide prevents sepsis-induced organ dysfunction via effective blockade of the inflammatory cascade” (Signal Transduction and Targeted Therapy, 2025).
Where a SMILES comes first, the peptide text is derived from it.

Test system: CLP model mice
Assay: Routine blood test: neutrophils and monocytes in CLP model mice
Type: in vivo, mouse
Settings: 100 μg/20 g i.v.
Description: The cecal ligation and puncture (CLP) model was established in male C57BL/6 mice (9-10 weeks old). Briefly, a midline laparotomy was performed to exteriorize the cecum under general anesthesia. The cecum was ligated at the distal three-quarters using sutures. Subsequently, a single through-and-through puncture was made in the ligated segment using a 22-gaμge needle, followed by small volume of fecal content was gentle extrusion. The cecum was then repositioned within abdominal cavity, and the laparotomy incision was closed in layers. All animals were administered 1 mL of sterile saline for postoperative fluid resuscitation. Sham-operated controls underwent identical surgical procedures without cecal ligation or puncture. In this work, mice received administration via intravenous injection 1 hour after CLP surgery. The animal mortality was determined by the presence of confirmed death. […] Subsequently, mice were sacrificed to collect the main organs for morphological and pathological analysis.

## CSCC[C@@H]1NC(=O)[C@@H]2CCCN2C(=O)[C@H](CCSC)NC(=O)[C@H](CO)NC(=O)[C@H](Cc2c[nH]cn2)NC(=O)CNC(=O)[C@H](CO)NC(=O)[C@H](Cc2ccccc2)NC(=O)[C@H](CCCNC(=N)N)NC(=O)[C@H](CCC(=O)O)NC(=O)[C@H](Cc2ccccc2)NC(=O)[C@H](C(C)C)NC1=O [Cp1] (cyclo(HSMPMVFERFSG))
12 h
  increase of absolute monocyte count (delayed peak) vs sham group: 69%
  reduction in absolute neutrophil count vs CLP group: 63%
Peak at 12 h
  reduction in absolute monocyte count vs the 4-h peak value in the CLP group: 38%
